Experiments:
[1] = test system: C57BL/6j mice; assay: Intraperitoneal glucose tolerance test in C57BL/6j mice; type: in vivo; conditions: for maximum glucose levels in IPGTT: 7 days, control 440
Protocol: Mice were treated with 2 different doses of F-L-Leu (10 and 30 mg/kg/days) during 7 days and then IPGTT was performed.

[2] = target: T1, PPARγ (Homo sapiens, UniProt P37231); assay: Protease protection (partial trypsin digestion of 35S-PPARγ); type: binding; conditions: compound 10^−4M, increasing trypsin
T1 construct: a construct containing the entire cDNA of the human PPARγ2 (hPPARγ2); host or cells: cell-free coupled transcription/translation system
T1 sequence (P37231 1-505): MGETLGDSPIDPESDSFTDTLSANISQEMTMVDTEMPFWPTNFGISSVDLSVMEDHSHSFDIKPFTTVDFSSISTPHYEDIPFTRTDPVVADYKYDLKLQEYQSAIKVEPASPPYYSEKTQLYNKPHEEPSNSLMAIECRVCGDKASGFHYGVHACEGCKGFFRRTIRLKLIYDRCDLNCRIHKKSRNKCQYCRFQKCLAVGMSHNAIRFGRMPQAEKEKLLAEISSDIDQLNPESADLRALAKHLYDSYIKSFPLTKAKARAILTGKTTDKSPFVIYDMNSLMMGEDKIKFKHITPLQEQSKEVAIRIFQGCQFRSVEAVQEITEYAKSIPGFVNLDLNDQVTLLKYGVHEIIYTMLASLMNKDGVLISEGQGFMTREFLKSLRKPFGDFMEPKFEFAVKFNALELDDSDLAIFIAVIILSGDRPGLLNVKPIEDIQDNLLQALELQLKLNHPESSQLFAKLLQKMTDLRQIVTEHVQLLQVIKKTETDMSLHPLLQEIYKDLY
Protocol: The pSG5-hPPARγ2 plasmid was used to synthesize ? ^35S-radiolabeled PPARγ in a coupled transcription/translation system according to the protocol of the manufacturer (Promega, Madison, Wis.). The transcription/translation reactions were subsequently aliquoted into 22.5 μl and 2,5 μl of phosphate buffered saline +/− compound were added. The mixture was separated into 4.5 μl aliquots and 0.5 μl of distilled water or distilled water-solubilized trypsin were added. The protease digestion were allowed to proceed for 10 min at 25° C. and terminated by the addition denaturing loading buffer. After separation of the digestion products in a gel SDS ? PAGE 12% acrylamide, the gel was fixed in 10% acetic acid (v/v) 30% ethanol (v/v) ? for 30 min, treated in Amplify™ (Amersham, Orsay, France) and dried. The radiolabeled digestion products were visualized by autoradiography.

[3] = target: PPARγ DE/p300Nt-GST (Homo sapiens, UniProt P37231)
Chain of PPARγ DE/p300Nt-GST (Q09472 2-516 partner limits assumed, one chain of several): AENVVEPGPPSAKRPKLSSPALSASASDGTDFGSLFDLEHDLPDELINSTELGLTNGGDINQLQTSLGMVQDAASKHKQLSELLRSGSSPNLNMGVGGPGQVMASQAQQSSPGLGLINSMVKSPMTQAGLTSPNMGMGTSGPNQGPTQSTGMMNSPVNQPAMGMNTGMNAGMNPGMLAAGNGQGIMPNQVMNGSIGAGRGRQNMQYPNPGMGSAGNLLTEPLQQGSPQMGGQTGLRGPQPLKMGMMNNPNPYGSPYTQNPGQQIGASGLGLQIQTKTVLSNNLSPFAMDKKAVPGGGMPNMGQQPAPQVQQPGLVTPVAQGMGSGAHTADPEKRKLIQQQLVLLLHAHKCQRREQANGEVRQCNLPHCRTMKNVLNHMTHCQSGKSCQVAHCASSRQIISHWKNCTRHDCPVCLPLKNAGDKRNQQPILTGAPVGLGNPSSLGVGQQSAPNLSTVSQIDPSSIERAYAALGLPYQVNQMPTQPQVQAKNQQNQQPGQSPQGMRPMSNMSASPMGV
Source text: The beads were then washed and the samples separated on SDS-PAGE and blotted. The blot was developed with anti-histidine antibodies.
The p300Nt-GST, fusion protein was generated by cloning the N-terminal part of the p300 protein (a.a. 2 to 516) downstream of the glutathione-S-transferase (GST) protein in the pGex-T1 vector (Pharmacia, Orsay, France). The fusion proteins were then expressed in Escherichia coli and purified on a glutathione affinity matrix (Pharmacia). Human PPARγ (aa. 203 to 477 of PPARγ) was subcloned into the pET15b (Novagen, Madison, Wis.) expression vector. The his-tagPPARγ2DE203-477 proteins were produced as follow. The protein was purified using a metal chelate affinity column with an affinity column Co^2+ coupled agarose (High Trap chelatin, Pharmacia). The protein was eluted with 20 mM Tris-HCl, 500 M NaCl, 130 mM imidazole and 1-2 propanediol 2.5% (pH 8.5). A second purification step was made by gel filtration (Superdex 200 16/60, Pharmacia). The protein was eluted with 20 mM Tris-HCl, 100 mM NaCl, 5 mM DTT and 1-2 propanediol 2,5% (pH 8.5).

Which “insulin sensitivity in normal animals” value ([1]; 30 mg/kg/day) does the source give for `CC(C)CC(NC(=O)OCC1c2ccccc2-c2ccccc21)C(=O)O` [F-L-Leu, N-(9-fluroroenylmethyloxycarbonyl)-L-Leucine] here?
The value was “significantly improve insulin sensitivity”.

And the “clearance of intraperitoneally administered glucose vs vehicle” value ([1]; C57BL/6j, 10 mg/kg/day)?
Its value is “comparable rate”.

And the “maximum glucose levels in IPGTT” value ([1]; C57BL/6j, 10 mg/kg/day i.p.)?
Its value is 440 mg/dL.

And the “maximum glucose levels in IPGTT” value ([1]; C57BL/6j, 30 mg/kg/day i.p.)?
Its value is 320 mg/dL.

And the “area under the curve in IPGTT” value ([1]; C57BL/6j, 30 mg/kg/day, vs control or lower dose)?
The value was “significantly lower”.

And the “protection of PPARγ from trypsin digestion (conformation change)” value [2]?
Its value is “produced a protease protection”.

What about the “potency relative to rosiglitazone (fold lower)” value ([3]; p300 pull-down) of the same molecule?
The value was 2- to 3 fold.

What about the “formation of PPARγ DE/p300Nt-GST complexes” value ([3]; vs DMSO, rosiglitazone 10^−4 M, F-L-Leu 10^−3 M) of the same molecule?
The value was “effectively induced”.
